# Measurements reported in patent US10111822B2, “External dermal composition for anti-ageing and method for producing the same” (Hayashibara Co., Ltd., priority 2012, dated 2018).
# What was measured:
# [1] = test system: Involucrin; test: Expression of proliferation marker protein involucrin in NHEK cells (Western); assay type: cell-based, human; settings: 5 days, control regarded as 50%
# Method: Normal human epidermal keratinocytes from neonatal foreskin (NHEK cells) were prepared into 2.5×10^5 cells/mL with EpiLife medium, inoculated to 12-well plates in a volume of 1 mL/well, and cultured at 37° C. for one day under a 5% v/v CO2 condition. Thereafter, each supernatant was removed, and a medium, to which ascorbic acid 2-glucoside had been added to give a final concentration of 300 or 600 μM, was added to the resulting cells in a volume of 1 mL/well, followed by culturing the cells at 37° C. for two days under a 5% v/v CO2 condition. Another cell culture system, which had been similarly cultured in a medium free of ascorbic acid 2-glucoside, was provided as a control. The cells cultured with ascorbic acid 2-glucoside were further added with a medium supplemented with the same concentration of sodium salt of ascorbic acid 2-glucoside as that in the above medium in a volume of 1 mL/well, and cultured for another three days under the same conditions. […] Each of the resulting extract was centrifuged to collect a supernatant, and a part of which was subjected to protein quantification. […]
# [2] = test system: Dickkopf-1 (DKK1); test: Production of DKK1 in NHDF cells (ELISA); assay type: cell-based, human; settings: for DKK1 Production level, First day: n=3, control 0.115 ± 0.012; for DKK1 Production level, Third day: n=3, control 0.217 ± 0.021
# Method: NHDF Cells, which had been diluted with a culture medium to give a cell density of 1×10^4 cells/well, were inoculated to 96-well plates. At 24 hours after the inoculation, the supernatant in each well of the plates was removed, followed by adding ascorbic acid 2-glucoside to each well of the plates to give a final concentration of 0.5, 1, 2, 4, or 8 mM. As a control, a cell culture system with no addition of ascorbic acid 2-glucoside was provided. At the first and third days of culturing after the addition of ascorbic acid 2-glucoside, the supernatant in each well of the plates was collected and quantified (n=3) for DKK1 with “RayBio”, a product name of an ELISA for DKK1 assay, commercialized by RayBiotech Inc., Georgia, USA. Statistical analysis of the data was performed by t-test (see “Kiso-Tokeigaku (Basic Statistics) III Statistics of Natural Science”, page 187, 2008, edited by University of Tokyo Press).
# [3] = pH of aqueous solutions of compositions; assay type: physicochemical; settings: 2 g (d.s.b.) dissolved in 20 mL refined water; ratio by mass (anhydrous crystalline sodium salt):(anhydrous crystal)
smiles,measurement,setting,value
"O=C1O[C@H]([C@@H](O)CO)C(O)=C1O[C@H]1O[C@H](CO)[C@@H](O)[C@H](O)[C@H]1O [ascorbic acid 2-glucoside, 2-O-α-D-glucosyl-L-ascorbic acid]","Relative expression level, Involucrin","[1]; 300 μM, calibrated with α-Tubulin",74%
same,"Relative expression level, Involucrin",[1]; 600 μM,84%
same,"DKK1 Production level, First day",[2]; 0.5 mmol/L,0.117 ± 0.018 ng/mL
same,"DKK1 Production level, Third day",[2]; 0.5 mmol/L,0.317 ± 0.035 ng/mL
same,"DKK1 Production level, First day",[2]; 1 mmol/L,0.129 ± 0.017 ng/mL
same,"DKK1 Production level, Third day",[2]; 1 mmol/L,0.315 ± 0.042 ng/mL
same,"DKK1 Production level, First day",[2]; 2 mmol/L,0.149 ± 0.037 ng/mL
same,"DKK1 Production level, Third day",[2]; 2 mmol/L,0.339 ± 0.030 ng/mL
same,"DKK1 Production level, First day",[2]; 4 mmol/L,0.146 ± 0.016 ng/mL
same,"DKK1 Production level, Third day",[2]; 4 mmol/L,0.392 ± 0.014 ng/mL
same,"DKK1 Production level, First day",[2]; 8 mmol/L,0.179 ± 0.032 ng/mL
same,"DKK1 Production level, Third day",[2]; 8 mmol/L,0.413 ± 0.033 ng/mL
same,pH,[3],1.7
